Reference: the NIST ThermoML archive (doi:10.1016/j.tca.2007.04.006)

Experiment: molar heat capacity at constant pressure
Conditions: 101.33 kPa, Crystal, Vacuum adiabatic calorimetry

Nc1ccc([N+](=O)[O-])cn1 [2-amino-5-nitropyridine]
Conditions | molar heat capacity at constant pressure [J/K/mol]
80 K | 52.33
80.24 K | 52.77
84.16 K | 54.56
85 K | 55.34
87.02 K | 56.26
89.97 K | 58.05
90 K | 58.25
93.01 K | 60.06
95 K | 61.07
96.12 K | 61.79
99.15 K | 63.52
100 K | 63.81
102.11 K | 65.16
105 K | 66.48
105.16 K | 66.83
108.3 K | 68.54
110 K | 69.08
111.38 K | 69.97
114.4 K | 71.41
115 K | 71.62
117.37 K | 72.83
120 K | 74.11
120.43 K | 74.39
123.58 K | 76.05
125 K | 76.55
126.69 K | 77.4
129.75 K | 78.85
130 K | 78.95
132.77 K | 80.21
135 K | 81.31
135.75 K | 81.69
138.82 K | 82.97
140 K | 83.65
141.99 K | 84.37
145 K | 85.96
145.12 K | 85.83
148.21 K | 87.22
150 K | 88.25
151.26 K | 88.71
154.29 K | 90.07
155 K | 90.53
157.29 K | 91.42
160 K | 92.79
160.26 K | 92.54
163.32 K | 93.8
165 K | 95.05
166.47 K | 95.36
169.59 K | 96.53
170 K | 97.31
172.69 K | 97.56
175 K | 99.56
175.76 K | 99.17
178.81 K | 100.66
180 K | 101.83
181.83 K | 101.77
184.86 K | 103.74
185 K | 104.09
188 K | 105.44
190 K | 106.38
191.24 K | 107.04
194.48 K | 108.11
195 K | 108.67
197.71 K | 110.07
200 K | 110.98
200.95 K | 111.83
204.28 K | 113.75
205 K | 113.31
207.71 K | 115.82
210 K | 115.66
211.1 K | 117.36
214.45 K | 118.48
215 K | 118.02
217.75 K | 119.73
220 K | 120.42
220.98 K | 121.46
224.24 K | 123.44
225 K | 122.83
227.37 K | 125.24
230 K | 125.27
230.47 K | 126.78
233.53 K | 128
235 K | 127.73
236.7 K | 129.18
